Tests used:
[1] = molecular target: T1, GluN2B (Mus musculus, UniProt P35439+Q01097, Q01097:C456Y, species not given); assay: potentiation of recombinant NMDAR currents in Xenopus oocytes; format: cell-based
T1 construct: gene Grin2b; recombinant diheteromeric GluN1/GluN2B-C456Y receptor; with GluN1

[2] = molecular target: T2, GluN2B (Mus musculus, UniProt P35439+Q01097); assay: as above; format: cell-based
T2 construct: gene Grin2b; recombinant diheteromeric GluN1/GluN2B receptor; with GluN1
T2 sequence (Q01097 27-1482, other chains not shown): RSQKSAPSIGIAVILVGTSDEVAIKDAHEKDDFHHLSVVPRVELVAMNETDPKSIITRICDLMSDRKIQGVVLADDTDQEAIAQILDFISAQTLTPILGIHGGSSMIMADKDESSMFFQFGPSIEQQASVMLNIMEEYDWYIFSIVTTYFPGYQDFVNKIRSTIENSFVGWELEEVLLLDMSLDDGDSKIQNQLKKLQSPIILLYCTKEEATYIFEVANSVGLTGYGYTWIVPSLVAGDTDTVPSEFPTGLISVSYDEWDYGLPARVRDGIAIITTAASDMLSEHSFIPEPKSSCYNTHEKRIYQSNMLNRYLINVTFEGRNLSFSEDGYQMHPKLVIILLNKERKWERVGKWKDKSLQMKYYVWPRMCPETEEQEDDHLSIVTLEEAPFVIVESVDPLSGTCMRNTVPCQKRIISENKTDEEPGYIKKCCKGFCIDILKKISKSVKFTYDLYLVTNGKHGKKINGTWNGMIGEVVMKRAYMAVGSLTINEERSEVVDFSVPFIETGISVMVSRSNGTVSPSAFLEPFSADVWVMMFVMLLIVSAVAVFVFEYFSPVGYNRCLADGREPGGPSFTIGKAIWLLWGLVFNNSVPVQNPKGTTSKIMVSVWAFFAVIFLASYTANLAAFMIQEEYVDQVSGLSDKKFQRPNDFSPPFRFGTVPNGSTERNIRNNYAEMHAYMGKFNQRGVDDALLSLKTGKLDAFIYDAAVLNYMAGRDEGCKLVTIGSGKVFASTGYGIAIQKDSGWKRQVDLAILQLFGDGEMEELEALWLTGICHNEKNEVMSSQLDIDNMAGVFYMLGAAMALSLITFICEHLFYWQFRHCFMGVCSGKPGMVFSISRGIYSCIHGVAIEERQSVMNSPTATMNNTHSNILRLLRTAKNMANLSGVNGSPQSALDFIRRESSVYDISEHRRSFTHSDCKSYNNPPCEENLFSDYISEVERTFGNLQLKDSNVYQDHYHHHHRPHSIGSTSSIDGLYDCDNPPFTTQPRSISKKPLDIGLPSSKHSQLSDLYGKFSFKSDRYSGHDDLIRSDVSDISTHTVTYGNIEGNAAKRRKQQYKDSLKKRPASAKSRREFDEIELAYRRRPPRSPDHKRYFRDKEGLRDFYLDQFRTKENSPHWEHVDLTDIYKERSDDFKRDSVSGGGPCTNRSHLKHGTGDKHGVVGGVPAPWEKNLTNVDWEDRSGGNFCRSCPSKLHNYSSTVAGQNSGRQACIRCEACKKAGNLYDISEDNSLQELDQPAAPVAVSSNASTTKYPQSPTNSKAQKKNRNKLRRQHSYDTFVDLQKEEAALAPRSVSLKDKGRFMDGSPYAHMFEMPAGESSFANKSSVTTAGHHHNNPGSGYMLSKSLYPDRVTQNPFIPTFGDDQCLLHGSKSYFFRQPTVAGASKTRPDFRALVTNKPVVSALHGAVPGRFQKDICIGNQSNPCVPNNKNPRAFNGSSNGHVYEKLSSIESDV

T1 sequence (Q01097 27-1482 C456Y, other chains not shown): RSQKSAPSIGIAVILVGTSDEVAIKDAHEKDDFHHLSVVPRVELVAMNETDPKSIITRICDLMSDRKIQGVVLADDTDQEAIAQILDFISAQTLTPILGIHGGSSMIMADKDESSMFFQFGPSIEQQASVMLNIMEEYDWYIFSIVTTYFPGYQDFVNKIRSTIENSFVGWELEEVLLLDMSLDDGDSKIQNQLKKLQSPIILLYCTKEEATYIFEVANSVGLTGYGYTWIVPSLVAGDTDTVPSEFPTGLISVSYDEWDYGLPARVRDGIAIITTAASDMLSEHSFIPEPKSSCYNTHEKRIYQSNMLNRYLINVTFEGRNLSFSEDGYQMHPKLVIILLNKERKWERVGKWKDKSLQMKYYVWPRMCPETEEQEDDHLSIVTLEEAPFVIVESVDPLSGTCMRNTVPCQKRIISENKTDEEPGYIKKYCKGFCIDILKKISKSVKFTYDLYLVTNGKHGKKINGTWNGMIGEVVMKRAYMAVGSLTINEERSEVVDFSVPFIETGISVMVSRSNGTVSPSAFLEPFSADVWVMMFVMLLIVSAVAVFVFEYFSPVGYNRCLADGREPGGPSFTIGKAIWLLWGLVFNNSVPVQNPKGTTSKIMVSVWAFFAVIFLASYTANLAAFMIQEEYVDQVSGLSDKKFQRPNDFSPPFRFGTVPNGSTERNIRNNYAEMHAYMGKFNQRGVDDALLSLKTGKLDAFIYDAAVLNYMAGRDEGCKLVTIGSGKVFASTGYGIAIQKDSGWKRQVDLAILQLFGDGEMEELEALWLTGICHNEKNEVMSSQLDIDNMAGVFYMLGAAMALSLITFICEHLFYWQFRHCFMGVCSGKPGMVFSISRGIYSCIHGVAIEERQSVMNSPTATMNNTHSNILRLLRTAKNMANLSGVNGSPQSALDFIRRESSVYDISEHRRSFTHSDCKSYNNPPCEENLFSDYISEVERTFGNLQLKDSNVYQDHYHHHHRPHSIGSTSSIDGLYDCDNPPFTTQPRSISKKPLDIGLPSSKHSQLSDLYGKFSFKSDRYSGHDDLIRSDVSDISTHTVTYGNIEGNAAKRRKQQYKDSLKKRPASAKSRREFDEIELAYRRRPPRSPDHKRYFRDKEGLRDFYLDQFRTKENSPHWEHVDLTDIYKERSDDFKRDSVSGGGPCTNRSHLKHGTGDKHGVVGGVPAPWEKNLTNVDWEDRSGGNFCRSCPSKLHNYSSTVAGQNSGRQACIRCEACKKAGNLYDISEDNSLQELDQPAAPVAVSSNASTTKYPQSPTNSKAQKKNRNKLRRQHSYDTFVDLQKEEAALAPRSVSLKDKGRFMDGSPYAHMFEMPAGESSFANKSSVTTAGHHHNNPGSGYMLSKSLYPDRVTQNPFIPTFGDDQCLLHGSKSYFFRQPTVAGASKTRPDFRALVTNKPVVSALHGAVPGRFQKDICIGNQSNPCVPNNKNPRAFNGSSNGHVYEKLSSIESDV

## NCCCNCCCCNCCCN [spermine]
[1]
  potentiation of recombinant NMDAR currents in Xenopus oocytes: 2.83 spermine potentiation
[2]
  potentiation of recombinant NMDAR currents in Xenopus oocytes: 9.45 spermine potentiation
